Measured values published in patent publication US20120083522A1, “MODULATION OF INFLAMMATORY RESPONSES BY FACTOR XI” (Isis Pharmaceuitcals, inc., priority 2009, published 2012).

Columns and labels:
[1] = tested on: human Factor XI mRNA; experiment: Dose-dependent inhibition in HepG2 cells, lipofectin (Example 5); format: cell-based; conditions: 16 hours
Procedure: (§1) Cells were plated at a density of 10,000 cells per well and transfected using lipofectin reagent with 2.34 nM, 4.69 nM, 9.375 nM, 18.75 nM, 37.5 nM, and 75 nM concentrations of antisense oligonucleotide, as specified in Table 11. After a treatment period of approximately 16 hours, RNA was isolated from the cells and human Factor XI mRNA levels were measured by quantitative real-time PCR. Human Factor XI primer probe set RTS 2966 was used to measure mRNA levels. Factor XI mRNA levels were adjusted according to total RNA content, as measured by RIBOGREEN®. Results are presented as percent inhibition of human Factor XI, relative to untreated control cells.

[2] = tested on: human Factor XI mRNA; experiment: Dose-dependent inhibition in HepG2 cells, electroporation (Example 5); format: cell-based; conditions: approx. 16 h, relative to untreated control cells
Procedure: The gapmers were also transfected via electroporation and their dose dependent inhibition of human Factor XI mRNA was measured. Cells were plated at a density of 20,000 cells per well and transfected via electroporation with 625 nM, 1250 nM, 2500 nM, 5,000 nM, 10,000 nM, and 20,000 nM concentrations of antisense oligonucleotide, as specified in Table 12. After a treatment period of approximately 16 hours, RNA was isolated from the cells and human Factor XI mRNA levels were measured by quantitative real-time PCR. Human Factor XI primer probe set RTS 2966 was used to measure mRNA levels. Factor XI mRNA levels were adjusted according to total RNA content, as measured by RIBOGREEN®. Results are presented as percent inhibition of human Factor XI, relative to untreated control cells.

[3] = tested on: human Factor XI mRNA; experiment: Dose-dependent inhibition in HepG2 cells, lipofectin (Example 4); format: cell-based; conditions: 16 hours
Outline: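 HepG2 cells at 10,000 per well were lipofectin-transfected with 9.375, 18.75, 37.5 or 75 nM antisense oligonucleotide for about 16 h. Factor XI mRNA was quantified by real-time PCR (primer probe set RTS 2966) and normalised to RIBOGREEN total RNA. Values are percent inhibition versus untreated cells.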

[4] = Tolerability in Sprague-Dawley rats: kidney function (Example 19); format: in vivo; conditions: Sprague Dawley rats; for urine protein/creatinine ratio, After: after 50 mg/kg s.c. twice per week for 6 weeks; for urine protein/creatinine ratio, Before: before antisense oligonucleotide treatment
Excerpt: (§2) Urine samples were taken before the start of treatment.

[5] = tested on: human Factor XI mRNA; experiment: Dose-dependent inhibition in HepB3 cells, electroporation (Example 7); format: cell-based; conditions: approx. 16 h
Procedure: The gapmers were also transfected via electroporation and their dose dependent inhibition of human Factor XI mRNA was measured. Cells were plated at a density of 20,000 cells per well and transfected via electroporation with 41.15 nM, 123.457 nM, 370.37 nM, 1111.11 nM, 3333.33 nM, and 10,000 nM concentrations of antisense oligonucleotide, as specified in Table 15. After a treatment period of approximately 16 hours, RNA was isolated from the cells and human Factor XI mRNA levels were measured by quantitative real-time PCR. Human Factor XI primer probe set RTS 2966 was used to measure mRNA levels. Factor XI mRNA levels were adjusted according to total RNA content, as measured by RIBOGREEN®. Results are presented as percent inhibition of human Factor XI, relative to untreated control cells.

[6] = tested on: human Factor XI mRNA; experiment: Dose-dependent inhibition in HepB3 cells, lipofectin (Example 7); format: cell-based; conditions: approx. 16 h
Procedure: as §1, with “4,000” for “10,000”, “2.3” for “2.34”, “4.7” for “4.69”, “9.4” for “9.375”, “14.” for “11.”, “of” for “of human”

[7] = tested on: human Factor XI mRNA; experiment: Dose-dependent inhibition in cyno primary hepatocytes, electroporation (Example 6); format: cell-based, cynomolgus monkey; conditions: approx. 16 h
Procedure: Cells were plated at a density of 35,000 cells per well and transfected via electroporation with 0.74 nM, 2.2 nM, 6.7 nM, 20 nM, 60 nM, and 180 nM concentrations of antisense oligonucleotide, as specified in Table 13. After a treatment period of approximately 16 hours, RNA was isolated from the cells and human Factor XI mRNA levels were measured by quantitative real-time PCR. Human Factor XI primer probe set RTS 2966 was used to measure mRNA levels. Factor XI mRNA levels were adjusted according to total RNA content, as measured by RIBOGREEN®. Results are presented as percent inhibition of human Factor XI, relative to untreated control cells.

[8] = Tolerability in Sprague-Dawley rats: body and organ weight (Example 19); format: in vivo; conditions: 50 mg/kg s.c. twice per week for 6 weeks, change over weight at start of study
Excerpt: as §2
The body weights are presented in Table 78 and are expressed as a percent change over the weights taken at the start of the study.

| Substance | percent inhibition of human Factor XI mRNA, relative to untreated control cells ([1]; 2.34 nM) | percent inhibition of human Factor XI mRNA, relative to untreated control cells ([1]; 4.69 nM) | percent inhibition of human Factor XI mRNA, relative to untreated control cells ([1]; 9.375 nM) | percent inhibition of human Factor XI mRNA, relative to untreated control cells ([1]; 18.75 nM) | percent inhibition of human Factor XI mRNA, relative to untreated control cells ([1]; 37.5 nM) | percent inhibition of human Factor XI mRNA, relative to untreated control cells ([1]; 75 nM) | percent inhibition of human Factor XI mRNA ([2]; 625 nM) | percent inhibition of human Factor XI mRNA ([2]; 1250 nM) | percent inhibition of human Factor XI mRNA ([2]; 2500 nM) | percent inhibition of human Factor XI mRNA ([2]; 5000 nM) | percent inhibition of human Factor XI mRNA ([2]; 10000 nM) | percent inhibition of human Factor XI mRNA ([2]; 20000 nM) | percent inhibition of Factor XI mRNA, relative to untreated control cells ([3]; 9.375 nM) | percent inhibition of Factor XI mRNA, relative to untreated control cells ([3]; 18.75 nM) | percent inhibition of Factor XI mRNA, relative to untreated control cells ([3]; 37.5 nM) | percent inhibition of Factor XI mRNA, relative to untreated control cells ([3]; 75 nM) | urine protein/creatinine ratio, After [4] | urine protein/creatinine ratio, Before [4] | percent inhibition of human Factor XI mRNA ([5]; 41.15 nM) | percent inhibition of human Factor XI mRNA ([5]; 123.457 nM) | also measured |
| --- | --- | --- | --- | --- | --- | --- | --- | --- | --- | --- | --- | --- | --- | --- | --- | --- | --- | --- | --- | --- | --- |
| 416825 (antisense GCCCTTCATGTCTAGGTCCA; 5-10-5 gapmer, wing sugar chemistry not given here, further chemistry not given here) [compound 416825] | 4% | 22% | 39% | 57% | 79% | 89% | 69% | 84% | 91% | 94% | 96% | 97% | 23% | 52% | 73% | 92% | 5.4 | 1.1 | 32% | 40% | percent inhibition of human Factor XI mRNA ([5]; 370.37 nM): 48%; percent inhibition of human Factor XI mRNA ([5]; 1111.11 nM): 75%; percent inhibition of human Factor XI mRNA ([5]; 3333.33 nM): 90%; percent inhibition of human Factor XI mRNA ([5]; 10000 nM): 92%; percent inhibition of human Factor XI mRNA ([6]; 2.3 nM): 0%; percent inhibition of human Factor XI mRNA ([6]; 4.7 nM): 15%; percent inhibition of human Factor XI mRNA ([6]; 9.4 nM): 34%; percent inhibition of human Factor XI mRNA ([6]; 18.75 nM): 36%; percent inhibition of human Factor XI mRNA ([6]; 37.5 nM): 53%; percent inhibition of human Factor XI mRNA ([6]; 75 nM): 59%; percent inhibition of human Factor XI mRNA ([7]; 0.74 nM): 5%; percent inhibition of human Factor XI mRNA ([7]; 2.2 nM): 22%; percent inhibition of human Factor XI mRNA ([7]; 6.7 nM): 51%; percent inhibition of human Factor XI mRNA ([7]; 20 nM): 61%; percent inhibition of human Factor XI mRNA ([7]; 60 nM): 77%; percent inhibition of human Factor XI mRNA ([7]; 180 nM): 84%; Percent change in Body weight [8]: −18% |
| 416838 (antisense GCAACCGGGATGATGAGTGC; 5-10-5 gapmer, wing sugar chemistry not given here, further chemistry not given here) [compound 416838] | 21% | 37% | 50% | 63% | 74% | 83% | 66% | 79% | 87% | 90% | 93% | 96% | 31% | 51% | 64% | 86% | 3.7 | 1.2 | 12% | 9% | percent inhibition of human Factor XI mRNA ([5]; 370.37 nM): 28%; percent inhibition of human Factor XI mRNA ([5]; 1111.11 nM): 40%; percent inhibition of human Factor XI mRNA ([5]; 3333.33 nM): 77%; percent inhibition of human Factor XI mRNA ([5]; 10000 nM): 88%; percent inhibition of human Factor XI mRNA ([6]; 2.3 nM): 23%; percent inhibition of human Factor XI mRNA ([6]; 4.7 nM): 34%; percent inhibition of human Factor XI mRNA ([6]; 9.4 nM): 43%; percent inhibition of human Factor XI mRNA ([6]; 18.75 nM): 59%; percent inhibition of human Factor XI mRNA ([6]; 37.5 nM): 71%; percent inhibition of human Factor XI mRNA ([6]; 75 nM): 56%; percent inhibition of human Factor XI mRNA ([7]; 0.74 nM): 0%; percent inhibition of human Factor XI mRNA ([7]; 2.2 nM): 0%; percent inhibition of human Factor XI mRNA ([7]; 6.7 nM): 21%; percent inhibition of human Factor XI mRNA ([7]; 20 nM): 34%; percent inhibition of human Factor XI mRNA ([7]; 60 nM): 48%; percent inhibition of human Factor XI mRNA ([7]; 180 nM): 62%; Percent change in Body weight [8]: −23% |
| 416850 (antisense TGCACAGTTTCTGGCAGGCC; 5-10-5 gapmer, wing sugar chemistry not given here, further chemistry not given here) [compound 416850] | 24% | 31% | 49% | 55% | 70% | 77% | 69% | 80% | 87% | 90% | 93% | 96% | 4% | 30% | 67% | 84% | 4.0 | 1.0 | 26% | 38% | percent inhibition of human Factor XI mRNA ([5]; 370.37 nM): 51%; percent inhibition of human Factor XI mRNA ([5]; 1111.11 nM): 73%; percent inhibition of human Factor XI mRNA ([5]; 3333.33 nM): 90%; percent inhibition of human Factor XI mRNA ([5]; 10000 nM): 95%; percent inhibition of human Factor XI mRNA ([6]; 2.3 nM): 22%; percent inhibition of human Factor XI mRNA ([6]; 4.7 nM): 32%; percent inhibition of human Factor XI mRNA ([6]; 9.4 nM): 43%; percent inhibition of human Factor XI mRNA ([6]; 18.75 nM): 56%; percent inhibition of human Factor XI mRNA ([6]; 37.5 nM): 75%; percent inhibition of human Factor XI mRNA ([6]; 75 nM): 60%; percent inhibition of human Factor XI mRNA ([7]; 0.74 nM): 2%; percent inhibition of human Factor XI mRNA ([7]; 2.2 nM): 20%; percent inhibition of human Factor XI mRNA ([7]; 6.7 nM): 24%; percent inhibition of human Factor XI mRNA ([7]; 20 nM): 65%; percent inhibition of human Factor XI mRNA ([7]; 60 nM): 69%; percent inhibition of human Factor XI mRNA ([7]; 180 nM): 67%; Percent change in Body weight [8]: −33% |
